Patent US7566712B2, “Biaryl piperazinyl-pyridine analogues” (Neurogen Corporation, priority 2003, dated 2009)

Target: T1, human capsaicin receptor (Homo sapiens, UniProt Q8NER1)
T1 construct: pBK-CMV expression construct encoding the full length human capsaicin receptor; expressed in transfected cells
Assay: Calcium mobilization assay, determination of antagonist activity (Example 6)
Format: cell-based
Details: determined as described in Example 6 (calcium mobilization, antagonist activity); Table II
Procedure, shortened: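 HEK293 clonal lines stably expressing full-length human capsaicin receptor, loaded with Fluo-3 AM in KRH buffer pH 7.4, 1–2 h at 37 °C. Compounds (1–5 μM final) preincubated 0.5–6 h at room temperature, then capsaicin at its EC50 added. FLIPR/Fluoroskan calcium signal; IC50 as 50% decrease of capsaicin response.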

T1 sequence (Q8NER1 whole entry): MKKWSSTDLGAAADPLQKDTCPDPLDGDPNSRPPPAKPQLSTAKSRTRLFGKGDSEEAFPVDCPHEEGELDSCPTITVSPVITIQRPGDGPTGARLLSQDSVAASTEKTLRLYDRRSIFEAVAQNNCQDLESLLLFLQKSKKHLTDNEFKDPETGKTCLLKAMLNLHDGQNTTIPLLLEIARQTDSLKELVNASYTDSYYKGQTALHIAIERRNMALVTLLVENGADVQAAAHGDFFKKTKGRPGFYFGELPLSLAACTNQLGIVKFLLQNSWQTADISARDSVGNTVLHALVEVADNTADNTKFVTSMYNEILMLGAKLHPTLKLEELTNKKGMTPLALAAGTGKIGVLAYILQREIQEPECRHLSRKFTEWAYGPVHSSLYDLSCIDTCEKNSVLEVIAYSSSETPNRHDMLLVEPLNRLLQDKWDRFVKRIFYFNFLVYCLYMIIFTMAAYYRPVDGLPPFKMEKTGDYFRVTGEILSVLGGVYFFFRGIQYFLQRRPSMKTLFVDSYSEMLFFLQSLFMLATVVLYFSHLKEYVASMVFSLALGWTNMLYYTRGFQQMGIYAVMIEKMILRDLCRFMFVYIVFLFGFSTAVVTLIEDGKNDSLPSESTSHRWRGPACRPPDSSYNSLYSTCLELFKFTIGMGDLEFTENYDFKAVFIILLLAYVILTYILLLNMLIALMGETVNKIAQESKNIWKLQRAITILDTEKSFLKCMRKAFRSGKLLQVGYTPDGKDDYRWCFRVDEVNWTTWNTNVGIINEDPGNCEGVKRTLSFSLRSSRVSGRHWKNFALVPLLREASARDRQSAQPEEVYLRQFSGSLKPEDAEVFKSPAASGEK

Row | Compound | IC50 [µM]
1 | CCCN1CCN(c2nc(-c3ccc(F)c(C)c3)cc(N3CCN(c4ncccc4C(F)(F)F)CC3)n2)CC1 [Example 682, 4-(4-fluoro-3-methylphenyl)-2-(4-propylpiperazin-1-yl)-6-{4-[3-(trifluoromethyl)pyridin-2-yl]piperazin-1-yl}pyrimidine] | ≤ 1
2 | CC(C)n1ccnc1-c1nc(-c2ccc(F)c(Cl)c2)cc(N2CCN(c3ncccc3C(F)(F)F)CC2)n1 [Example 683, 4-(3-chloro-4-fluorophenyl)-2-(1-isopropyl-1H-imidazol-2-yl)-6-{4-[3-(trifluoromethyl)pyridin-2-yl]piperazin-1-yl}pyrim:dine] | ≤ 1
3 | Cc1cc(-c2cc(N3CCN(c4ncccc4C(F)(F)F)CC3)nc(-c3nccn3C(C)C)n2)ccc1F [Example 684, 4-(4-fluoro-3-methylphenyl)-2-(1-isopropyl-1H-imidazol-2-yl)-6-{4-[3-(trifluoromethyl)pyridin-2-yl]piperazin-1-yl}pyrimidine] | ≤ 1
4 | Cc1cc(-c2cc(N3CCN(c4ncccc4C(F)(F)F)CC3)nc(N3CCCCS3(=O)=O)n2)ccc1F [Example 685, 2-(4-(4-fluoro-3-methylphenyl)-6-{4-[3-(trifluoromethyl)pyridin-2-yl]piperazin-1-yl}pyrimidin-2-yl)-1,2-thiazinane 1,1-dioxide] | ≤ 1
5 | Cc1cc(-c2cc(N3CCN(c4ncccc4C(F)(F)F)CC3)nc(C(C)O)n2)ccc1F (stereo not shown) [Example 686, 1-(4-(4-fluoro-3-methylphenyl)-6-{4-[3-(trifluoromethyl)pyridin-2-yl]piperazin-1-yl}pyrimidin-2-yl)ethanol] | ≤ 1
6 | Cc1cc(-c2cc(N3CCN(c4ncccc4C(F)(F)F)CC3)nc(N(CCO)C(C)C)n2)ccc1F [Example 687, 2-[(4-(4-fluoro-3-methylphenyl)-6-{4-[3-(trifluoromethyl)pyridin-2-yl]piperazin-1-yl}pyrimidin-2-yl)(isopropyl)amino]ethanol] | ≤ 1
7 | Cc1cc(-c2cc(N3CCN(c4ncccc4C(F)(F)F)CC3)nc(N3CCN(S(C)(=O)=O)CC3)n2)ccc1F [Example 688, 4-(4-fluoro-3-methylphenyl)-2-[4-(methylsulfonyl)piperazin-1-yl]-6-{4-[3-(trifluoromethyl)pyridin-2-yl]piperazin-1-yl}pyrimidine] | ≤ 1
8 | Cc1cc(-c2cc(N3CCN(c4ncccc4C(F)(F)F)CC3)nc(-c3ccncc3)n2)ccc1F [Example 689, 4-(4-fluoro-3-methylphenyl)-2-pyridin-4-yl-6-{4-[3-(trifluoromethyl)pyridin-2-yl]piperazin-1-yl}pyrimidine] | ≤ 1
9 | Cc1cc(-c2cc(N3CCN(c4ncccc4C(F)(F)F)CC3)nc(NS(=O)(=O)C(C)C)n2)ccc1F [Example 690, N-(4-(4-fluoro-3-methylphenyl)-6-{4-[3-(trifluoromethyl)pyridin-2-yl]piperazin-1-yl}pyrimidin-2-yl)propane-2-sulfonamide] | ≤ 1
10 | Cc1cc(-c2cc(N3CCN(c4ncccc4C(F)(F)F)CC3)nc(N(C)S(=O)(=O)C(C)C)n2)ccc1F [Example 691, N-(4-(4-fluoro-3-methylphenyl)-6-{4-[3-(trifluoromethyl)pyridin-2-yl]piperazin-1-yl}pyrimidin-2-yl)-N-methytpropane-2-sulfonamide] | ≤ 1
11 | Cc1cc(-c2cc(N3CCN(c4ncccc4C(F)(F)F)CC3)nc(N(C(C)C)S(=O)(=O)C(C)C)n2)ccc1F [Example 692, N-(4-(4-fluoro-3-methylphenyl)-6-{4-[3-(trifluoromethyl)pyridin-2-yl]piperazin-1-yl}pyrimidin-2-yl)-N-isopropylpropane-2-sulfonamide] | ≤ 1
12 | Fc1ccc(-c2cc(N3CCN(c4ncccc4C(F)(F)F)CC3)nc(NC3CCCC3)n2)cc1Cl [Example 693, 4-(3-chloro-4-fluorophenyl)-N-cyclopentyl-6-{4-[3-(trifluoromethyl)pyridin-2-yl]piperazin-1-yl}pyrimidin-2-amine] | ≤ 1
13 | CNC[C@@H]1CCCN1c1nc(-c2ccc(F)c(Cl)c2)cc(N2CCN(c3ncccc3C(F)(F)F)CC2)n1 [Example 694, 1-[(2S)-1-(4-(3-chloro-4-fluorophenyl)-6-{4-[3-(trifluoromethyl)pyridin-2-yl]piperazin-1-yl}pyrimidin-2-yl)pyrrolidin-2-yl]-N-methylmethanamine] | ≤ 1
14 | Cc1cccnc1N1CCN(c2cc(-c3ccc(F)c(Cl)c3)nc(N3CCCC3C)n2)CC1 (stereo not shown) [Example 695, 4-(3-chloro-4-fluorophenyl)-6-[4-(3-methylpyridin-2-yl)piperazin-1-yl]-2-(2-methylpyrrolidin-1-yl)pyrimidine] | ≤ 1
15 | Cc1cc(-c2cc(N3CCN(c4ncccc4C)CC3)nc(N3CCCC3C)n2)ccc1F (stereo not shown) [Example 696, 4-(4-fluoro-3-methylphenyl)-6-[4-(3-methylpyridin-2-yl)piperazin-1-yl]-2-(2-methylpyrrolidin-1-yl)pyrimidine] | ≤ 1
16 | Cc1cc(-c2cc(N3CCN(c4ncccc4Cl)CC3)nc(N3CCCC3)n2)ccc1F [Example 697, 4-[4-(3-chloropyridin-2-yl)piperazin-1-yl]-6-(4-fluoro-3-methylphenyl)-2-pyrrolidin-1-ylpyrimidine] | ≤ 1

Row | Compound | IC50 [µM]
17 | Cc1cc(-c2cc(N3CCN(c4ncccc4Cl)CC3)nc(N3CCCC3C)n2)ccc1F (stereo not shown) [Example 698, 4-[4-(3-chloropyridin-2-yl)piperazin-1-yl]-6-(4-fluoro-3-methylphenyl)-2-(2-methylpyrrolidin-1-yl)pyrimidine] | ≤ 1
18 | CC1(C)CCCN1c1nc(-c2ccc(F)c(Cl)c2)cc(N2CCN(c3ncccc3C(F)(F)F)CC2)n1 [Example 699, 4-(3-chloro-4-fluorophenyl)-2-(2,2-dimethylpyrrolidin-1-yl)-6-{4-[3-(trifluoromethyl)pyridin-2-yl]piperazin-1-yl}pyrimidine] | ≤ 1
19 | Fc1ccc(-c2cc(N3CCN(c4ncccc4Cl)CC3)nc(SCc3ccccc3)n2)cc1Cl [Example 700, 2-(benzylthio)-4-(3-chloro-4-fluorophenyl)-6-[4-(3-chloropyridin-2-yl)piperazin-1-yl]pyrimidine] | ≤ 1
20 | O=S(=O)(Cc1ccccc1)c1nc(-c2ccc(F)c(Cl)c2)cc(N2CCN(c3ncccc3Cl)CC2)n1 [Example 701, 2-(benzylsulfonyl)-4-(3-chloro-4-fluorophenyl)-6-[4-(3-chloropyridin-2-yl)piperazin-1-yl]pyrimidine] | ≤ 1
21 | Cc1cccnc1N1CCN(c2cc(-c3ccc(F)cc3)nc(N3CCCC3C)n2)CC1 (stereo not shown) [Example 702, 4-(4-fluorophenyl)-6-[4-(3-methylpyridin-2-yl)piperazin-1-yl]-2-(2-methylpyrrolidin-1-yl)pyrimidine] | ≤ 1
22 | Cc1cccnc1N1CCN(c2cc(-c3ccc(F)c(F)c3)nc(N3CCCC3C)n2)CC1 (stereo not shown) [Example 703, 4-(3,4-difluorophenyl)-6-[4-(3-methylpyridin-2-yl)piperazin-1-yl]-2-(2-methylpyrrolidin-1-yl)pyrimidine] | ≤ 1
23 | CC1CCCN1c1nc(-c2ccc(F)c(F)c2)cc(N2CCN(c3ncccc3C(F)(F)F)CC2)n1 (stereo not shown) [Example 704, 4-(3,4-difluorophenyl)-2-(2-methylpyrrolidin-1-yl)-6-{4-[3-(trifluoromethyl)pyridin-2-yl]piperazin-1-yl}pyrimidine] | ≤ 1
24 | CC1CCCN1c1nc(-c2ccc(F)cc2)cc(N2CCN(c3ncccc3C(F)(F)F)CC2)n1 (stereo not shown) [Example 705, 4-(4-fluorophenyl)-2-(2-methylpyrrolidin-1-yl)-6-{4-[3-(trifluoromethyl)pyridin-2-yl]piperazin-1-yl}pyrimidine] | ≤ 1
25 | Cc1cccc(-c2cc(N3CCN(c4ncccc4C(F)(F)F)CC3)nc(N3CCCC3C)n2)c1 (stereo not shown) [Example 706, 4-(3-methylphenyl)-2-(2-methylpyrrolidin-1-yl)-6-{4-[3-(trifluoromethyl)pyridin-2-yl]piperazin-1-yl}pyrimidine] | ≤ 1
26 | CC1CCCN1c1nc(-c2ccc(F)c(Cl)c2)cc(N2CCN(c3ncccc3F)CC2)n1 (stereo not shown) [Example 707, 4-(3-chloro-4-fluorophenyl)-6-(4-(3-fluoropyridin-2-yl)piperazin-1-yl]-2-(2-methylpyrrolidin-1-yl)pyrimidine] | ≤ 1
27 | Cc1cc(-c2cc(N3CCN(c4ncccc4F)CC3)nc(N3CCCC3C)n2)ccc1F (stereo not shown) [Example 708, 4-(4-fluoro-3-methylphenyl)-6-[4-(3-fluoropyridin-2-yl)piperazin-1-yl]-2-(2-methylpyrrolidin-1-yl)pyrimidine] | ≤ 1
28 | CC1CCCN1c1nc(-c2ccc(F)c(Cl)c2)cc(N2CCN(c3ncccc3C#N)CC2)n1 (stereo not shown) [Example 709, 2-{4-[6-(3-chloro-4-fluorophenyl)-2-(2-methylpyrrolidin-1-yl)pyrimidin-4-yl]piperazin-1-yl}nicotirionitrile] | ≤ 1
29 | Fc1ccc(-c2cc(N3CCN(c4ncccc4C(F)(F)F)CC3)nc(N3CCC3)n2)cc1Cl [Example 710, 2-azetidin-1-yl-4-(3-chloro-4-fluorophenyl)-6-{4-[3-(trifluoromethyl)pyridin-2-yl]piperazin-1-yl}pyrimidine] | ≤ 1
30 | CN(C)C(=O)[C@@H]1CCCN1c1nc(-c2ccc(F)c(Cl)c2)cc(N2CCN(c3ncccc3C(F)(F)F)CC2)n1 [Example 711, 1-(4-(3-chloro-4-fluorophenyl)-6-{4-[3-(trifluoromethyl)pyridin-2-yl]piperazin-1-yl}pyrimidin-2-yl)-N,N-dimethyl-L-prolinamide] | ≤ 1
31 | CN(C)C[C@@H]1CCCN1c1nc(-c2ccc(F)c(Cl)c2)cc(N2CCN(c3ncccc3C(F)(F)F)CC2)n1 [Example 712, 1-[(2S)-1-(4-(3-chloro-4-fluorophenyl)-6-{4-[3-(trifluoromethyl)pyridin-2-yl]piperazin-1-yl}pyrimidin-2-yl)pyrrolidin-2-yl]-N,N-dimethylmethanamine] | ≤ 1
